According to PMC3038857, “Using Nuclear Receptor Activity to Stratify Hepatocarcinogens” (PLoS ONE, 2011):

How the values were obtained:
Rat Liver [1] = details: chronic study, rat liver; ref ToxRefDB; cited from earlier work
Rat Liver [2] = details: chronic study, rat liver; ref ToxRefDB; cited from earlier work; remark: listed apart in the source
Mouse Liver [3] = details: chronic study, mouse liver; ref ToxRefDB; cited from earlier work
Rat Liver [4] = details: chronic study, rat liver; ref ToxRefDB; cited from earlier work; remark: listed apart in the source
Mouse Liver [5] = details: chronic study, mouse liver; ref ToxRefDB; cited from earlier work; remark: listed apart in the source
Mouse Liver [6] = details: chronic study, mouse liver; ref ToxRefDB; cited from earlier work; remark: listed apart in the source
LXRb (NR1H2) = biological target: T1, LXRb (NR1H2) (Homo sapiens, UniProt P55055); test: ATG_LXRb_TRANS: Factorial reporter gene assay (HepG2); assay type: cell-based; details: HepG2 reporter
T1 construct: expressed in transfected cells; host or cells: HepG2
T1 sequence (P55055 1-460): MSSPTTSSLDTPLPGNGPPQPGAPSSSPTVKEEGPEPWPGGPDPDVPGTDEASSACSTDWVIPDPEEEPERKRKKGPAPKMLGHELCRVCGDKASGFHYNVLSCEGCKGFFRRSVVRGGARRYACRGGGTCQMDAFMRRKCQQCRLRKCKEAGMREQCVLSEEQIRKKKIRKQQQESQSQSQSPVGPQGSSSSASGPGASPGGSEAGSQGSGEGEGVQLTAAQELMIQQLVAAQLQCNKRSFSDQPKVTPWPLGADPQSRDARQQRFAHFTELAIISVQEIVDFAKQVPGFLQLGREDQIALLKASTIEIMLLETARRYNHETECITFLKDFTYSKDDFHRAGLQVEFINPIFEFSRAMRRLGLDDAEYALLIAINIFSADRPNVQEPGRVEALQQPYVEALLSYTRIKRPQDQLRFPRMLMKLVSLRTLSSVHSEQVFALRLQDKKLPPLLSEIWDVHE
Experimental: A multiple reporter transcription unit (MRTU) library consisting of 48 transcription factor binding sites was transfected into the HepG2 human liver hepatoma cell line. In addition to the cis-acting reporter genes (CIS), a modification of the approach was used to generate a trans-system (TRANS) with a mammalian one-hybrid assay consisting of an additional 25 MRTU library reporting the activity of nuclear receptor super-family members. […] These assays were performed by Attagene Inc. (Morrisville NC) under contract to EPA.
In addition to the cis-acting reporter genes (CIS), a modification of the approach was used to generate a trans-system (TRANS) with a mammalian one-hybrid assay consisting of an additional 25 MRTU library reporting the activity of nuclear receptor super-family members. […] Chemicals were then tested in the CIS and TRANS assays at seven concentrations starting at the MTC and followed by three-fold serial dilutions. These assays were performed by Attagene Inc. (Morrisville NC) under contract to EPA. Detailed description of the methods, data and analysis methods for this dataset will be presented in a separate publication.

CYP1A1 = test: CLZD_CYP1A1: Change in expression of CYP1A1 (primary human hepatocytes); assay type: cell-based; details: 24 hr
In short: (§1)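 Primary human hepatocytes exposed to 5 concentrations (0.004-40 µM) for 6, 24 or 48 hr; transcript levels measured by multiplexed quantitative nuclease protection assay. Markers of nuclear receptor pathways: CYP1A1 (AhR), CYP2B6 and ABCB1 (CAR), CYP3A4 (PXR).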

CYP2B6 = test: CLZD_CYP2B6: Change in expression of CYP2B6 (primary human hepatocytes); assay type: cell-based; details: 24 hr
In short: as §1

[7] = biological target: T2, PPARG (peroxisome proliferator-activated receptor gamma) (Homo sapiens, UniProt P37231); test: ATG_PPARg_TRANS: Factorial reporter gene assay (HepG2); assay type: cell-based; details: HepG2 reporter
T2 construct: expressed in transfected cells; host or cells: HepG2
T2 sequence (P37231 1-505): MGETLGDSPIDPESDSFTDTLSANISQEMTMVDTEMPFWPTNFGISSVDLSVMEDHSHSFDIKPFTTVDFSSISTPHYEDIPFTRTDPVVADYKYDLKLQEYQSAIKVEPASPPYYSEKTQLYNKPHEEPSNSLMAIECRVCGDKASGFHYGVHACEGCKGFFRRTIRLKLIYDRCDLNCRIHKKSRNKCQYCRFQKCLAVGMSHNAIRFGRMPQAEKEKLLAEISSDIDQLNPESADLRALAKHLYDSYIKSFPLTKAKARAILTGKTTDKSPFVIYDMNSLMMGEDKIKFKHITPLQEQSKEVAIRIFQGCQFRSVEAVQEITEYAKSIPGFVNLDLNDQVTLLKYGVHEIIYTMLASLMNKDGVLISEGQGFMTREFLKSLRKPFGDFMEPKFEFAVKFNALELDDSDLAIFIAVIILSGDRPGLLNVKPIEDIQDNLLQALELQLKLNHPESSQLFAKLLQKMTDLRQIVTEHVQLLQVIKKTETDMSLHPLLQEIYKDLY
In short: (§2)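 HepG2 cells transfected with multiplexed reporter libraries: cis-acting binding-site reporters (CIS) and a one-hybrid nuclear-receptor trans system (TRANS). Chemicals tested at seven concentrations, starting at the maximum tolerated concentration with three-fold serial dilutions.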

CYP1A2 = test: CLZD_CYP1A2: Change in expression of CYP1A2 (primary human hepatocytes); assay type: cell-based; details: 24 hr
In short: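 Primary human hepatocyte cultures were exposed to test chemicals at 5 concentrations (0.004-40 µM) for 6, 24 or 48 hr.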

PXR (NR1I2) [8] = biological target: T3, PXR (NR1I2) (Homo sapiens, UniProt O75469); test: ATG_PXRE_CIS: Factorial reporter gene assay (HepG2); assay type: cell-based; parameters: endogenous in cells; host or cells: HepG2; details: HepG2 reporter
T3 sequence (O75469 1-434): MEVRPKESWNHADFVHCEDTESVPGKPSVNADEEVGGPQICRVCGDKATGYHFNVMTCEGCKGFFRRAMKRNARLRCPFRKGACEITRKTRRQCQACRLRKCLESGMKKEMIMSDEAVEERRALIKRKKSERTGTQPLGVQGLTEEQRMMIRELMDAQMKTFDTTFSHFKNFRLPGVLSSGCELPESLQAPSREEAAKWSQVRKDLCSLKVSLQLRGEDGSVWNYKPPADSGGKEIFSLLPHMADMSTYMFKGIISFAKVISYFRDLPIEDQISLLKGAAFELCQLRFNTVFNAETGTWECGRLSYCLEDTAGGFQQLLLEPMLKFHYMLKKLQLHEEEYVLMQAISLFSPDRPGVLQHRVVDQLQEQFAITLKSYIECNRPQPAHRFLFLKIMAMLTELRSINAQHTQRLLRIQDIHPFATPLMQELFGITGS
In short: as §2

PXR Human (NR1I2) = biological target: T4, PXR Human (NR1I2) (Homo sapiens, UniProt O75469); test: NCGC_PXR_Agonist_human: GAL4 BLAM Reporter gene assay: PXR Human; assay type: cell-based; details: agonist mode
T4 sequence (O75469 146-434 limits assumed): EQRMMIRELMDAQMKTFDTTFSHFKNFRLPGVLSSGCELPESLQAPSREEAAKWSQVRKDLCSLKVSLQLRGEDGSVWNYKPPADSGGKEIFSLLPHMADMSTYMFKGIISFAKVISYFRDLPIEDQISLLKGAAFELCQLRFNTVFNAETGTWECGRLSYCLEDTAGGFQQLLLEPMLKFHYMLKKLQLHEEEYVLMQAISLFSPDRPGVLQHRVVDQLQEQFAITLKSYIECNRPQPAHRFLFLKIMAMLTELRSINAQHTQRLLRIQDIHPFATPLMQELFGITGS
Experimental: These assays measure binding constants and enzyme inhibition values for nuclear receptors. The targets include [drawing 67] , [drawing 68] , [drawing 69] , [drawing 70] , [drawing 71] , [drawing 72] , [drawing 73] , [drawing 74] , [drawing 75] and [drawing 76] . Each of the nuclear receptor targets was measured in agonist mode. Assays were run at the NIH Chemical Genomics Center (Rockville, MD).
Cell-based HTS Assays: These assays measuring binding constants and enzyme inhibition values for nuclear receptors. The targets include AR, ER, FXR, LXR, PPARα, PPARδ, PPARγ, RXRα, RXRβ and PXR. Each of the nuclear receptor targets was measured in both agonist and antagonist mode, but the antagonist data is still undergoing analysis due to possible interference between cytotoxicity and assay activity, so antagonist mode data were not used in the present analysis. Assays were run at the NIH Chemical Genomics Center (Rockville, MD) as part of the Tox21 collaboration. […] The R^2 was required to be ≥0.5. Values where only the highest concentration exceeded 50% activity were excluded to eliminate weak or false positives. Detailed description of the methods, data and analysis methods for this dataset will be presented in a separate publication.

PXR (NR1I2) [9] = biological target: T3, PXR (NR1I2); test: NVS_NR_hPXR: Human PXR Fluormone PXR (SXR) green (cell-free HTS); assay type: binding
In short: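 Responses were normalized to same-plate solvent controls as percent of neutral control. AC50 values came from Hill-equation fits of concentration-response curves.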

CYP3A4 = test: CLZD_CYP3A4: Change in expression of CYP3A4 (primary human hepatocytes); assay type: cell-based; details: 24 hr
In short: as §1

ABCB1 = test: CLZD_ABCB1: Change in expression of ABCB1 (primary human hepatocytes); assay type: cell-based; details: 24 hr
Experimental: This is a collection of multiplexed gene expression assays focused on Phase I and II xenobiotic metabolizing enzymes and transporters. Human primary cell cultures were treated with chemicals at 5 concentrations (0.004-40 [drawing 42] M) for 6, 24 and 48 hr. Concentration- and time-response profiles of chemicals were measured by the expression of key nuclear receptor target genes, activities of CYP1A enzymes (EROD), and cell morphology. Fourteen gene targets were monitored by quantitative nuclease protection assay including: six representative cytochrome P-450 genes, four hepatic transporters, three Phase II conjugating enzymes, and one endogenous metabolism gene involved in cholesterol synthesis. The target genes associated with nuclear receptor pathways are as follows: [drawing 43] and [drawing 44] with [drawing 45]; [drawing 46] , [drawing 47] , [drawing 48] , [drawing 49] , [drawing 50] and [drawing 51] with [drawing 52]; [drawing 53] , [drawing 54] , [drawing 55] and [drawing 56] with [drawing 57]; [drawing 58] with [drawing 59]; and [drawing 60] with [drawing 61] . Assays were run in primary human hepatocyte cultures by CellzDirect Invitrogen Inc. (Durham, NC), in collaboration with EPA.
Multiplexed Gene Expression in Human Primary Hepatocytes: This is a collection of multiplexed gene expression assays focused on Phase I and II metabolic enzymes and transporters. […] Fourteen gene targets were monitored by quantitative nuclease protection assay: six representative cytochrome P450 genes, four hepatic transporters, three Phase II conjugating enzymes, and one endogenous metabolism gene involved in cholesterol synthesis. Cells were exposed at 5 concentrations (0.004-40 µM) for 6, 24 or 48 hr. Gene targets are sentinels for five nuclear receptor signaling pathways: AhR, CAR, PXR, FXR, and PPARα. All gene are associated with nuclear receptor pathways: CYP1A1 and CYP1A2 with AHR; ABCB1, ABCG2, CYP2B6, CYP2C9, CYP2C19 and UGT1A1 with CAR; CYP3A4, GSTA2, SLCO1B1 and SULT2A1 with PXR; HMGCS2 with PPARA; and ABCB11 with FXR. […] Detailed description of the methods, data and analysis methods for this dataset will be presented in a separate publication.

PXR (NR1I2) [10] = biological target: T3, PXR (NR1I2); test: ATG_PXR_TRANS: Factorial reporter gene assay (HepG2); assay type: cell-based; parameters: endogenous in cells; host or cells: HepG2; details: HepG2 reporter
In short: as §2

Row | SMILES | CHR_Rat_Liver_2_PreneoplasticLesion (Rat Liver [1]) | CHR_Rat_Liver_1_AnyLesion (Rat Liver [2]) | CHR_Mouse_Liver_1_AnyLesion (Mouse Liver [3]) | CHR_Rat_Liver_3_NeoplasticLesion (Rat Liver [4]) | CHR_Mouse_Liver_2_PreneoplasticLesion (Mouse Liver [5]) | CHR_Mouse_Liver_3_NeoplasticLesion (Mouse Liver [6]) | ATG_LXRb_TRANS (LXRb (NR1H2)) | CLZD_CYP1A1_24 (CYP1A1) | CLZD_CYP2B6_24 (CYP2B6) | ATG_PPARg_TRANS [7] | CLZD_CYP1A2_24 (CYP1A2) | ATG_PXRE_CIS (PXR (NR1I2) [8]) | NCGC_PXR_Agonist_human (PXR Human (NR1I2)) | NVS_NR_hPXR (PXR (NR1I2) [9]) | CLZD_CYP3A4_24 (CYP3A4) | CLZD_ABCB1_24 (ABCB1) | ATG_PXR_TRANS (PXR (NR1I2) [10])
1 | CC/C(=N\OC/C=C/Cl)C1=C(O)CC(C2CCOCC2)CC1=O (stereo not shown) [r295] | 6 | 6 | 6 | 6 | 6 | 6 | 4.194 | – | – | – | – | – | – | – | – | – | –
2 | Cc1cc(C)nc(Nc2ccccc2)n1 [r273] | 6 | 6 | – | 0 | – | – | 4.237 | 4.775 | 5.27 | 4.137 | 4.839 | – | – | – | – | – | –
3 | C#CC(C)(C)NC(=O)c1cc(Cl)cc(Cl)c1 [r265] | 0 | 6 | 6 | 0 | 6 | 6 | – | – | 5.253 | – | – | 4.824 | 4.619 | 4.411 | 4.621 | 5.227 | 4.409
4 | Cc1[nH]c(=O)n(C(C)(C)C)c(=O)c1Cl [r296] | – | – | 6 | – | 6 | 6 | 4.119 | 5.327 | 5.239 | – | – | – | – | – | – | – | –
